Source: patent US20220251152A1, “COMPOSITIONS AND METHODS FOR SELECTIVE PROTEIN DEGRADATION” (Novartis AG, priority 2019, published 2022)
Entries after “also recorded” stand apart in the source; their conditions may differ.

Tests used:
CAR19 internal HilDtag [1] = test: CAR19 internal HilDtag in Jurkat cells, Western blot; format: cell-based; details: 10 uM lenalidomide, 24 hours; FIG. 43B
Source text: The gels were run in duplicate, one for actin and the other for either V5 or CD3Z.

[2] = test system: HilD-tagged CAR19 or FurON-CAR19 (NFAT luciferase reporter); test: JNL NFAT luciferase reporter assay, lenalidomide dose-response at three treatment time points; format: cell-based, human; details: for decrease of luminescence signal at the highest doses: construct 767; for reduction of luminescence signal: highest 2-3 doses (10 μM, 3.16 μM, and 1 μM)
Experimental: This study used the JNL cell line described above, which is a Jurkat cell line modified with an NFAT luciferase reporter. Co-culturing of CAR19-expressing JNL cells and CD19-expressing B cells activates the NFAT signaling, leading to luciferase expression.
For target cell co-culture, K562 cells or CD19-expressing K562 cells were added to each well containing JNL cells and cultured on a GNF Systems Ultra-high throughput screening system in a 37° C. and 5% CO2 incubator.

CAR19 internal HilDtag [3] = test: CAR19 internal HilDtag in JNL cells, FACS; format: cell-based; details: 10 uM lenalidomide, 24 hours; FIG. 43A
Experimental: FACS: Cells were harvested in u-bottom plates and washed using 1×PBS. […] After incubation the cells were washed using PBS.

CAR19 = test: Surface CAR expression in primary T cells expressing CAR19, flow cytometry; format: cell-based; details: lenalidomide 1, 0.1, 0.01 μM, 24 or 48 hrs, FIG. 31B
Source text: Cells were harvested and washed with PBS.

CAR19 internal HilDtag [4] = test: Jurkat NFAT luciferase (JNL) CAR functional assay, CAR19 internal HilD-tag cells; format: cell-based; details: 8-point dilution, 10 uM top; FIG. 43C
Experimental: Cell plating: The CAR19 Internal HilD-tag cell line was diluted to 0.5×10^6 in 20 ml RPMI 1640 media (Thermo Fisher Scientific 11875-085) 10% FBS 1× pen/strep. 20 ul (0.5×10^6 cells) of this cell line was plated in a white solid-bottom 384 well plates (Greiner789163-G).
Plates were incubated for 15 hours at 37 C, 5% CO2.
B-cell addition and functional assay: K562 and Nalm6 cells were re-suspended at 0.5×10^6 cells/ml. […] Cells were stored at 37 C, 5% CO2 incubator for eight hours. Samples were then treated with 40 ul (1:1) Bright Glo (Promega E2620) and luminescence was read using Perkin Elmer's Viewlux with a 20 second exposure.

[5] = test system: CAR19 fused to HilD tag and/or FurON; test: Western blot of CAR19 fused to HilD tag and/or FurON in JNL cells; format: cell-based, human; details: CAR19-16GS-HilD-tag (construct 769); 10 μM lenalidomide
Experimental: Viruses were prepared from maxi preps and used to transduce JNL cells. Either 275 μL of viral supernatant or 700 μL of viral supernatant was used for transduction. JNL cells are Jurkat cells engineered with a luciferase gene under control of the NFAT promoter.
Briefly, cells were diluted to 0.5×10^6 in 3 mL total in 6 well dishes. […] Bazedoxifene was added at a final concentration of 1 μM to every well that contained a cell line expressing a fusion comprising FurON. […] Cells were incubated at 37° C. and 5% CO2 overnight.
Lysates were centrifuged, supernatant transferred to new tubes and protein quantities read by Lowry Assay (BioRad 5000111). Each sample was normalized to 30 μg total protein in a 20 μL volume with 4× sample buffer (Thermo Scientific NP0007) and 10× reducing agent (Thermo Scientific NP0009). Samples were subjected to Western blot analysis using a mouse anti-V5 antibody (Thermo Scientific MA5-15253) at 1:1000 dilution, a mouse anti-actin antibody (Sigma Aldrich A5441) at 1:10000 dilution, and/or a mouse anti-CD3z antibody (BD 551034) at 1:1000 dilution.
Cells were harvested and subjected to Western blot as described above using a mouse anti-actin antibody (Sigma Aldrich A5441) at 1:10000 dilution or a mouse anti-CD3zeta antibody (BD 551034) at 1:1000 dilution.

[6] = test system: CART cells in peripheral blood; test: CART cells in peripheral blood of xenograft mice, flow cytometry; format: in vivo, NSG mice; details: after lenalidomide treatment; FIG. 35
Experimental: (§1) Female NOD.Cg-Prkdc^scid Il2rg^tm1Wjl/SzJ mice (NSG) mice, 6-8 wk of age, were purchased from Jackson Laboratories. Animal studies were carried out under protocols approved by the Institutional Animal Care and Use Committee at NIBR. NSG mice were inoculated with 1.0×10^6 luciferized Nalm-6 intravenously. Sever days later, CAR-T cells were infused intravenously into tumor-bearing mice; unless otherwise stated, lenalidomide were dosed orally at the same time. Tumor burden was measured by IVIS and was quantified as radiance in the region of interest (ROI), which was generally the area of one mouse. Mice were euthanized upon losing more that 20% of body weight or development of hind limb paralysis. Graft vs. host disease was defined in indicated animals as hair loss, behavioral changes, and clear decrease in health not attributable to Nalm-6 luciferase signal.

CAR19 internal HilDtag [7] = test: FACS and Western blot of cells expressing CAR19 internal HilDtag; format: cell-based; details: 10 μM lenalidomide
Nalm6 = test: In vivo tumor control by CART19.HilD after Nalm6 implant (total flux); parameters: species or system mice
Source text: Total flux of ROI is plotted against days post Nalm6 implant.

Nalm6 cells = test: CART killing assay against CD19 positive target cells (luciferase); format: cell-based; details: 1 μM lenalidomide, 20 hr co-culture; FIG. 32C
Source text: (§2) The frozen CART cells were thawed in T cell media and co-cultured with either CD19 negative (K562 Cells) or CD19 positive target cells (Nalm6 cells), both expressing luciferase. Both the number of CART cells and the total number of T cells were normalized across samples; the latter was achieved by adding UTD cells. A titration of CART cells was done keeping the target cell number constant at 25,000 cells. The highest […] (E:T) explored was 20:1 and a 8 point dilution curve was used. […] The co-culture experiment was conducted in clear bottom black plates in a final volume of 200 μL. Upon a 20 hr incubation, 100 μL of supernatant was removed and cytokine levels were measured. To the rest, 100 μL Bright-Glo Luciferase assay reagent (substrate+enzyme) was added and incubated for 10 minutes, at room temperature. The % Killing was measured using the formula: Specific lysis (%)=(1−(sample luminescence/average maximal luminescence))*100.

K562 Cells = test: CART killing assay against CD19 negative target cells (luciferase); format: cell-based; details: with or without 1 μM lenalidomide; FIG. 32A
Source text: as §2

[8] = test system: CAR19 fused to HilD tag and/or FurON; test: Flow cytometry of surface CAR expression on JNL cells, 10 μM lenalidomide and/or bazedoxifene 24 hours; format: cell-based, human; details: FurON-CAR19 constructs with or without the HilD tag
Source text: Next, the surface expression of CAR19 on stably transduced JNL cells was examined by flow cytometry. […] On Day 2, cells were harvested, stained using biotinylated-protein L (Genscript, M00097) followed by PE conjugated streptavidin (Jackson Lab, 016-110-084), and subjected to flow cytometry analysis using Fortessa instrument.

[9] = test system: CAR19 internal HilDtag (NFAT luciferase); test: JNL assay of CAR19 internal HilDtag with Nalm6 or K562 cells; format: cell-based; details: lenalidomide dose-response
Source text: FIGS. 43A, 43B, and 43C are diagrams showing characterization of an exemplary anti-CD19 internal HilDtag CAR construct.

[10] = test system: IFN gamma and IL2 secretion; test: Cytokine secretion by CART cells co-cultured with CD19 positive cells; format: cell-based; details: 1 μM lenalidomide
Source text: as §2

luciferized Nalm-6 = test: Nalm-6 xenograft mouse model, tumor burden by IVIS; format: in vivo, NSG mice
Experimental: as §1

## Nc1cccc2c1CN(C1CCC(=O)NC1=O)C2=O (stereo not shown) [lenalidomide, 3-(4-amino-1-oxoisoindolin-2-yl)piperidine-2,6-dione]
CAR19 internal HilDtag [1]
  CAR19 protein (Western blot): degradation of CAR19
[2]; HilD-tagged CAR19 or lysine-free-HilD-tagged CAR19 (constructs 769, 770)
  effect on CD19-induced NFAT reporter signal: significantly reduced
[2]; construct 765 (FurON_CAR19) with bazedoxifene
  effect on reporter response without the HilD tag: had no impact on reporter response; also recorded: did not impact the luminescence signal
[2]; 8-hour treatment group (16 hr post-target cells)
  decrease of luminescence signal at the highest doses: 90%
[2]; 28-hour treatment group (4 hr pre-target cells)
  decrease of luminescence signal at the highest doses: 100%
[2]; 44-hour treatment group (20 hr pre-target cells)
  decrease of luminescence signal at the highest doses: 100%
[2]; construct 767 with bazedoxifene, lenalidomide 4 hours prior to K562+CD19 target cells
  reduction of CD19-induced reporter activation: ~80%
[2]; construct 769
  reduction of luminescence signal: ~100%
[2]; construct 770
  reduction of luminescence signal: ~100%
CAR19 internal HilDtag [3]
  anti-CD19 CAR expression (FACS): degradation
CAR19
  expression of CAR19: did not affect expression of CAR19
CAR19 internal HilDtag [4]
  response of CAR19 internal HilDtag JNL cells to CD19 positive Nalm6 cells: reduced this response in a dose-dependent manner
[5]
  time at which degradation is first evident: ≤ 4 h
  time to maximal degradation: ≤ 8 h
[6]
  CART cells in peripheral blood: Loss of CART cells in peripheral blood
CAR19 internal HilDtag [7]; JNL cells
  CAR degradation (FACS): degradation
CAR19 internal HilDtag [7]; Jurkat cells, 24 hours
  CAR19 degradation (Western blot): degradation of CAR19
Nalm6; day 5 post CART injection (FIG. 36)
  tumor control, later treatment of lenalidomide: loss of tumor control
Nalm6; mice treated with CART-HilD (FIG. 36)
  tumor control, early injection of lenalidomide: absence of tumor control
Nalm6; total flux vs days post Nalm6 implant (FIG. 34)
  tumor control by CART19.HilD: abolishes the ability of CART19.HilD to control tumor growth
Nalm6 cells
  killing curve of CART19-HilD against CD19-positive cells: slightly shifted
K562 Cells
  killing against CD19 negative cells: Low background killing
[8]
  lenalidomide-dependent reduction of surface CAR levels: only observed when CAR19 was fused to the HilD tag
[9]
  response to CD19 positive Nalm6 cells: reduced this response in a dose-dependent manner
[10]; CD19 positive cells, FIG. 33A
  secreted IFN gamma by CART19 HilD cells: decreased
[10]; CD19 positive cells, FIG. 33B
  secreted IL2 by CART19 HilD cells: decreased
[10]; FIGS. 33A and 33B
  ability of CART19 to secrete cytokines: immune to the addition of lenalidomide
Luciferized Nalm-6; lenalidomide 30 mg/kg bid orally, FIG. 34
  ability of CART19.HilD to control tumor growth in vivo: totally abolish
Luciferized Nalm-6; lenalidomide alone, data not shown
  Nalm6 growth in vivo: little effect
Luciferized Nalm-6; lenalidomide dosed at day 5 after CART19HilD adoptive transfer, FIG. 36
  tumor relapse: tumor relapse a few days after lenalidomide dosing
Luciferized Nalm-6; lenalidomide dosed immediately after CART19.HilD transfer, FIG. 36
  ability to control tumor growth in vivo: lost the ability to control tumor growth in vivo
